From publication PMC12118597 (Science Advances, 2025)
Read-outs that look alike come from different tables or passages of the source.

Columns and labels:
[1] = target: T1, SARS-CoV-2 NSP3 macrodomain (Mac1) (Severe acute respiratory syndrome coronavirus 2, UniProt P0DTD1); assay: biochemical; assay type: binding
[2] = target: T1, SARS-CoV-2 NSP3 macrodomain (Mac1); assay type: binding; details: for binding by crystal soaking: P43 crystal form, repeated attempts, result in words
[3] = compound at 200 μM, mean of three to four technical replicates, read-out: % competition at 200 μM (preliminary HTRF screen)
[4] = ligand modeling, Mac1 crystal soak
[5] = read-out: IC50 (confirmatory HTRF dose-response screen)
[6] = stereoisomer(s) modeled as bound, residues 201/202/203
[7] = single dose concentration 200 μM (TS-FrankenROCS series)
[8] = SARS CoV-2 macrodomain HTRF assay
[9] = SARS CoV-2 macrodomain HTRF assay, single dose concentration 200 μM, read-out: Average % competition
[10] = SARS CoV-2 macrodomain HTRF assay, dose-response, read-out: IC50
[11] = SARS CoV-2 macrodomain HTRF assay, single dose concentration 200 μM

SMILES: Nc1ncnc2c1ncn2[C@@H]1O[C@H](COP(=O)(O)OP(=O)(O)OC[C@H]2O[C@@H](O)[C@H](O)[C@@H]2O)[C@@H](O)[C@H]1O.[Na].[Na] [ADP-ribose, reference compound]
- Hill slope ([1]; HTRF binding curve, SARS-CoV-2 Mac1): 1.1
- X-ray crystal structure ([2]; TRUE = crystal structure with ligand obtained): TRUE

SMILES: O=C(O)C1CCCN1S(=O)(=O)c1cccc2nsnc12 (stereo not shown) [AVI-2]
- inhibition at 200 µM [1, 3]: 23%
- Number of isomers bound [2, 4]: 1

SMILES: c1ccc(-n2nnnc2CSc2nnc(NC3CC3)s2)cc1 [AVI-286]
- Number of isomers bound [2]: 1

SMILES: COC1CCCN(S(=O)(=O)c2cc(Cl)cnc2N)C1 (stereo not shown) [AVI-290]
- binding by crystal soaking [2]: failed to observe binding

SMILES: Nc1ncc(Cl)cc1S(=O)(=O)N1CCCC(O)C1 (stereo not shown) [AVI-295]
- binding by crystal soaking [2]: failed to observe binding

SMILES: Nc1nnc(SCCn2c(=O)oc3ccccc32)s1 [AVI-296]
- Number of isomers bound [2]: 1

SMILES: CC1CC(C(=O)O)CCN1C(=O)c1ccc2c(c1)OCC(=O)N2 (stereo not shown) [AVI-303]
- inhibition at 200 µM [1, 3]: < 10%
- inhibition at 200 µM ([1]; single dose concentration 200 μM (TS-FrankenROCS series), read-out: Average % competition): < 10%
- Number of isomers bound [2, 4]: 1

SMILES: OCC(Cc1ccccc1)Nc1ncnc2[nH]ccc12 (stereo not shown) [AVI-313]
- Ligand efficiency (binding enery per heavy atom) [1]: 0.27
- Ki ([1]; dose-response): 120 µM
- IC50 [1, 5]: 130 µM
- Number of isomers bound [2, 4]: 2
- Isomers modeled [2, 6]: S,R

SMILES: O=C(Nc1ccsc1C(=O)O)c1ccc2c(c1)OCO2 [AVI-316]
- Number of isomers bound [2, 4]: 1

SMILES: Cc1sc2ncnc(Sc3ccccc3C(=O)O)c2c1C [AVI-317]
- Number of isomers bound [2, 4]: 1

SMILES: Cc1c(C)n(Cc2ccccc2)c2ncnc(N)c12 [AVI-321]
- inhibition at 200 µM [1, 3]: 19%
- Number of isomers bound [2, 4]: 1

SMILES: CC(CNC(=O)c1ccc2c(c1)CCC(=O)N2)C(=O)O (stereo not shown) [AVI-328]
- Ligand efficiency (binding enery per heavy atom) [1]: 0.25
- Ki ([1]; dose-response): 210 µM
- IC50 [1, 5]: 220 µM
- Number of isomers bound [2, 4]: 2
- Isomers modeled [2, 6]: R,S

SMILES: Cc1cc2c(=O)n(CCN3C(=O)c4ccccc4S3(=O)=O)nnc2s1 [AVI-341]
- inhibition at 200 µM [1, 3]: 11%
- Average % competition [1, 7]: 11%
- Number of isomers bound [2, 4]: 1

SMILES: CC1CCN(C(=O)c2ccc3c(c2)nc(CO)n3C)CC1C(=O)O (stereo not shown) [AVI-348]
- inhibition at 200 µM [1, 3]: < 10%
- Average % competition [1, 7]: <10%
- Number of isomers bound [2, 4]: 1

SMILES: CC(C)(O)[C@H]1CCCN1c1ncnc2[nH]ccc12 [AVI-607, 2-[(2R)-1-{7H-pyrrolo[2,3-d]pyrimidin-4-yl}pyrrolidin-2-yl]propan-2-ol]
- Ligand efficiency ([1]; Binding energy per heavy atom): 0.41
- Ki [1, 8]: 4.7 µM
- Ligand efficiency (binding enery per heavy atom) [1, 8]: 0.41
- IC50 [1, 5]: 5.1 µM
- Number of isomers bound [2, 4]: 1

SMILES: OC[C@@H]1C[C@H](F)CN1c1ncnc2[nH]ccc12 [AVI-609]
- inhibition at 200 µM [1, 9]: 52%
- inhibition at 200 µM [1, 3]: 52%
- Number of isomers bound [2, 4]: 1

SMILES: OC[C@@H]1C[C@H](O)CN1c1ncnc2[nH]ccc12 [AVI-610]
- Ki [1, 8]: 150 µM
- Ligand efficiency (binding enery per heavy atom) [1, 8]: 0.31
- IC50 [1, 10]: 160 µM
- Number of isomers bound [2, 4]: 1

SMILES: NC(=O)C1(O)CCN(c2ncnc3[nH]ccc23)C1 (stereo not shown) [AVI-611]
- Average % competition [1, 11]: 30%
- inhibition at 200 µM [1, 3]: 30%
- Number of isomers bound [2, 4]: 1
- Isomers modeled [2, 6]: S,S

SMILES: CCC1(O)CCN(c2ncnc3[nH]ccc23)C1 (stereo not shown) [AVI-612]
- Average % competition [1, 11]: 22%
- inhibition at 200 µM [1, 3]: 22%
- Number of isomers bound [2, 4]: 1

SMILES: O[C@@H]1CN(c2ncnc3[nH]ccc23)C[C@H]1F [AVI-616]
- Average % competition [1, 11]: 15%
- inhibition at 200 µM [1, 3]: 15%
- Number of isomers bound [2, 4]: 1

SMILES: O[C@H]1COC[C@@H]1Nc1ncnc2[nH]ccc12 [AVI-1444, (3R,4S)-4-((7H-pyrrolo[2,3-d]pyrimidin-4-yl)amino)tetrahydrofuran-3-ol]
- Number of isomers bound [2, 4]: 1

SMILES: Cc1c[nH]c2ncnc(NCC3(O)CCCCC3)c12 [AVI-3761, 1-(((5-methyl-7H-pyrrolo[2,3-d]pyrimidin-4-yl)amino)methyl)cyclohexan-1-ol]
- Ki [1]: 12 µM
- IC50 [1, 5]: 13 µM

SMILES: CC(O)C1CCCN1c1ncnc2[nH]ccc12 (stereo not shown) [AVI-4062]
- fold decrease in affinity relative to AVI-607 ([1]; HTRF): ~ 10 fold
- Ki [1, 8]: 51 µM
- Ligand efficiency (binding enery per heavy atom) [1, 8]: 0.35
- IC50 [1, 5]: 55 µM

SMILES: C[C@H]1CC[C@H](CO)N(c2ncnc3[nH]ccc23)C1 [AVI-4063]
- Ki [1, 8]: 52 µM
- Ligand efficiency (binding enery per heavy atom) [1, 8]: 0.33
- IC50 [1, 10]: 56 µM

SMILES: OCC1CCC2(CCOCC2)CN1c1ncnc2[nH]ccc12 (stereo not shown) [AVI-4065]
- Ki [1, 8]: 400 µM
- Ligand efficiency (binding enery per heavy atom) [1, 8]: 0.21
- IC50 [1, 10]: 430 µM

SMILES: Cc1c[nH]c2ncnc(NCC3(O)CCOCC3)c12 [AVI-4194, 4-(((5-methyl-7H-pyrrolo[2,3-d]pyrimidin-4-yl)amino)methyl)tetrahydro-2H-pyran-4-ol]
- Ki [1, 8]: 150 µM
- Ligand efficiency (binding enery per heavy atom) [1, 8]: 0.28
- IC50 [1, 10]: 160 µM

SMILES: Cc1c[nH]c2ncnc(NCC3(O)CCSCC3)c12 [AVI-4195, 4-(((5-methyl-7H-pyrrolo[2,3-d]pyrimidin-4-yl)amino)methyl)tetrahydro-2H-thiopyran-4-ol]
- Ki [1, 8]: 48 µM
- Ligand efficiency (binding enery per heavy atom) [1, 8]: 0.31
- IC50 [1, 10]: 52 µM

SMILES: CC1CCCC(O)(CNc2ncnc3[nH]ccc23)C1 (stereo not shown) [AVI-4307]
- Ki [1, 8]: 37 µM
- Ligand efficiency (binding enery per heavy atom) [1, 8]: 0.32
- IC50 [1, 10]: 40 µM

SMILES: OC1(CNc2ncnc3[nH]ccc23)CCC(F)(F)CC1 [AVI-4308]
- Ki [1, 8]: 130 µM
- Ligand efficiency (binding enery per heavy atom) [1, 8]: 0.27
- IC50 [1, 10]: 140 µM

SMILES: OC1(CNc2ncnc3[nH]ccc23)CCCC(C(F)(F)F)C1 (stereo not shown) [AVI-4309]
- Ki [1, 8]: 140 µM
- Ligand efficiency (binding enery per heavy atom) [1, 8]: 0.24
- IC50 [1, 10]: 150 µM

SMILES: CC1(C)CCC(O)(CNc2ncnc3[nH]ccc23)CC1 [AVI-4310]
- Ki [1, 8]: 71 µM
- Ligand efficiency (binding enery per heavy atom) [1, 8]: 0.29
- IC50 [1, 10]: 76 µM

SMILES: OC1(CNc2ncnc3[nH]ccc23)CCCOC1 (stereo not shown) [AVI-4311]
- Ki [1, 8]: 160 µM
- Ligand efficiency (binding enery per heavy atom) [1, 8]: 0.29
- IC50 [1, 10]: 170 µM

SMILES: OC1(CNc2ncnc3[nH]ccc23)COC2CC1C2 (stereo not shown) [AVI-4313]
- Ki [1, 8]: 120 µM
- Ligand efficiency (binding enery per heavy atom) [1, 8]: 0.29
- IC50 [1, 10]: 130 µM

SMILES: OC1(CNc2ncnc3[nH]ccc23)CCOCC1 [AVI-4314]
- Ki [1, 8]: 210 µM
- Ligand efficiency (binding enery per heavy atom) [1, 8]: 0.28
- IC50 [1, 10]: 230 µM

SMILES: OC1(CNc2ncnc3[nH]ccc23)CCC2(CC1)OCCO2 [AVI-4315]
- Ki [1, 8]: 200 µM
- Ligand efficiency (binding enery per heavy atom) [1, 8]: 0.23
- IC50 [1, 10]: 210 µM

SMILES: O=S1(=O)CCCC(O)(CNc2ncnc3[nH]ccc23)C1 (stereo not shown) [AVI-4317]
- Ki [1, 8]: 100 µM
- Ligand efficiency (binding enery per heavy atom) [1, 8]: 0.28
- IC50 [1, 5]: 110 µM

SMILES: CN(CC1(O)CCOCC1)c1ncnc2[nH]ccc12 [AVI-4318]
- Ki [1, 8]: 66 µM
- Ligand efficiency (binding enery per heavy atom) [1, 8]: 0.30
- IC50 [1, 10]: 71 µM

SMILES: OC1(CNc2ncnc3[nH]ccc23)CCSCC1 [AVI-4319]
- Ki [1, 8]: 160 µM
- Ligand efficiency (binding enery per heavy atom) [1, 8]: 0.29
- IC50 [1, 10]: 170 µM

SMILES: OC1(CNc2ncnc3[nH]ccc23)CC2CCC1CC2 (stereo not shown) [AVI-4320]
- Ki [1, 8]: 77 µM
- Ligand efficiency (binding enery per heavy atom) [1, 8]: 0.28
- IC50 [1, 10]: 83 µM

SMILES: CC(Nc1ncnc2[nH]ccc12)C1(O)CCCCC1 (stereo not shown) [AVI-4321]
- Ki [1, 8]: 45 µM
- Ligand efficiency (binding enery per heavy atom) [1, 8]: 0.32
- IC50 [1, 10]: 48 µM

SMILES: OC1(CNc2ncnc3[nH]ccc23)CCCSC1 (stereo not shown) [AVI-4322]
- Ki [1, 8]: 49 µM
- Ligand efficiency (binding enery per heavy atom) [1, 8]: 0.33
- IC50 [1, 10]: 53 µM

SMILES: Cc1c[nH]c2ncnc(NCC3(O)CCC(O)CC3)c12 (stereo not shown) [AVI-4329]
- Isomers modeled ([2]; stereoisomer(s)/conformations of the soaked ligand modeled in the Mac1 crystal structure): rr,rr

SMILES: Cc1c[nH]c2ncnc(NCC3(O)CCC(C)(C)CC3)c12 [AVI-4330]
- Ki [1, 8]: 610 µM
- Ligand efficiency (binding enery per heavy atom) [1, 8]: 0.21
- IC50 [1, 10]: 650 µM

SMILES: CC(C)C1CCCN1c1ncnc2[nH]ccc12 (stereo not shown) [AVI-5216]
- inhibition at 200 µM [1, 9]: 35%
- inhibition at 200 µM [1, 3]: 35%

SMILES: CC(C)(CO)Nc1ncnc2[nH]ccc12 [AVI-5266]
- Ki [1, 8]: 30 µM
- IC50 [1, 10]: 32 µM

SMILES: OCC1(Nc2ncnc3[nH]ccc23)COC1 [AVI-5649]
- Average % competition ([1]; Single dose, concentration 200 μM): <10%
- inhibition at 200 µM [1, 3]: < 10%

SMILES: OCC1C=CCCN1c1ncnc2[nH]ccc12 (stereo not shown) [AVI-5998]
- Ki [1, 8]: 150 µM
- Ligand efficiency (binding enery per heavy atom) [1, 8]: 0.31
- IC50 [1, 10]: 160 µM

SMILES: OCC1CC=CCN1c1ncnc2[nH]ccc12 (stereo not shown) [AVI-6002]
- Ki [1, 8]: 48 µM
- Ligand efficiency (binding enery per heavy atom) [1, 8]: 0.35
- IC50 [1, 10]: 52 µM

SMILES: Nc1cccc(CSC2CCc3ccccc32)n1 (stereo not shown) [AVI-6015]
- IC50 ([1]; read-out: IC50): > 1000 µM

SMILES: CC(O)C1CCN(c2cc(N3CCC(c4ccccc4)CC3C)ncn2)C1 (stereo not shown) [AVI-6016]
- IC50 ([1]; read-out: IC50): > 1000 µM

SMILES: Nc1ncnc(N2CCCCC3(CCC3)C2)c1Cl [AVI-6017]
- IC50 ([1]; read-out: IC50): > 1000 µM

SMILES: OC1(CNc2ncnc3[nH]ccc23)CCCCC1 [AVI-6217]
- Ki [1, 8]: 39 µM
- Ligand efficiency (binding enery per heavy atom) [1, 8]: 0.34
- IC50 [1, 10]: 42 µM
